Measurements published in PubChem BioAssay (NCI).
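Each compound was tested at five concentrations against cells in 96-well plates for 48 hours. The concentration for full growth arrest is given as TGI.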

What was measured:
Assay in all cases: inhibition of tumour cell growth, NCI panel, 48 h
786-0 renal = tested on: 786-0 renal
HCC-2998 colon = tested on: HCC-2998 colon
HOP-62 NSCLC = tested on: HOP-62 NSCLC
K-562 leukemia = tested on: K-562 leukemia
KM12 colon = tested on: KM12 colon
NCI-H460 lung = tested on: NCI-H460 lung
OVCAR-3 ovarian = tested on: OVCAR-3 ovarian
SK-MEL-28 melanoma = tested on: SK-MEL-28 melanoma
SNB-75 CNS = tested on: SNB-75 CNS
SR leukemia = tested on: SR leukemia

Compound	TGI (786-0 renal)	TGI (HCC-2998 colon)	TGI (HOP-62 NSCLC)	TGI (K-562 leukemia)	TGI (KM12 colon)	TGI (NCI-H460 lung)	TGI (OVCAR-3 ovarian)	TGI (SK-MEL-28 melanoma)	TGI (SNB-75 CNS)	TGI (SR leukemia)
CC(=O)OC12OC(C)(C3C(=O)N(c4ccccc4)C(=O)C31)N(c1ccccc1)C2=O (stereo unspecified)	> 100 µM	> 100 µM	> 100 µM	> 100 µM	> 100 µM	> 100 µM	> 100 µM	> 100 µM	> 100 µM	> 100 µM
O=C1CCc2ccccc2O1	> 100 µM	> 100 µM	> 100 µM	> 100 µM	> 100 µM	> 100 µM	> 100 µM	> 100 µM	> 100 µM	> 100 µM
COC(=O)C1CCCN1C(=O)OC(C)(C)C (stereo unspecified)	> 100 µM	> 100 µM	> 100 µM	> 100 µM	> 100 µM	> 100 µM	> 100 µM	> 100 µM	> 100 µM	> 100 µM
COC(=O)CN(CC1O[C@@H]2OC(C)(C)O[C@@H]2C1NC(C)=O)C(=O)OCc1ccccc1 (stereo partly specified)	> 100 µM	> 100 µM	> 100 µM	> 100 µM	> 100 µM	> 100 µM	> 100 µM	> 100 µM	> 100 µM	> 100 µM
CC(=O)Nc1ccc(C(=O)n2[nH]c(C)c(/C=C3\C(=O)C=Cc4ccccc43)c2=O)cc1	> 100 µM	> 100 µM	> 100 µM	> 100 µM	> 100 µM	> 100 µM	> 100 µM	> 100 µM	> 100 µM	> 100 µM
CC(=O)CC12NC(=O)N(C)N=C1N(C)C(=O)N(C)C2=O (stereo unspecified)	> 100 µM	> 100 µM	> 100 µM	> 100 µM	> 100 µM	> 100 µM	> 100 µM	> 100 µM	> 100 µM	> 100 µM
CCSc1[nH]c(NC(=NC(C)C)NC(=O)c2ccccc2)c(C(N)=O)c1C(N)=O	> 10 µM	> 10 µM		> 10 µM	> 10 µM			> 10 µM	> 10 µM	> 10 µM
COc1cc(CC(=O)c2cc3c(cc2-c2ccccc2)OCO3)cc(OC)c1OC	> 100 µM	> 100 µM	> 100 µM	> 100 µM	> 100 µM	> 100 µM	> 100 µM	> 100 µM	35.8 µM	72.3 µM
Cc1sc2nc3n(c(=O)c2c1C)N=C(c1ccccc1)CS3	> 100 µM	> 100 µM	> 100 µM	> 100 µM	> 100 µM	> 100 µM	> 100 µM	> 100 µM	> 100 µM	> 100 µM
O=C1C(=Cc2ccc([N+](=O)[O-])o2)C(=O)N(CCc2ccccc2)S(=O)(=O)N1CCc1ccccc1	40.3 µM	> 100 µM		> 100 µM	> 100 µM	> 100 µM	31.4 µM	28 µM	> 100 µM	38.4 µM
N#CC(C#N)C1CN2CCC1CC2 (stereo unspecified)	> 100 µM	> 100 µM	> 100 µM	> 100 µM	> 100 µM	> 100 µM	> 100 µM	> 100 µM	> 100 µM	> 100 µM
